The values below come from patent US5948792A, “Fluorine-containing 1,4-disubstituted piperidine derivatives” (Banyu Pharmaceutical Co., Ltd., priority 1996, dated 1999).

In general, pKi refers to the Ki on a negative log10 scale, so that one unit is a factor of ten. The term ED50 denotes the dose that gives a 50% effect, or the effect in half of the subjects. Usually Kb stands for the affinity of an antagonist, worked out from how it opposes an agonist. A low value points to a more potent antagonist.

For assay [1], the target named is T1, Muscarinic M3 receptor (Homo sapiens, UniProt P20309).
T1 construct: purchased Receptor Biology, Inc; host or cells: CHO cells (membranes)
The experiment in a line: Inhibition of binding of [3H]-N-methylscopolamine to muscarinic M3 receptor. As to conditions: for pKi: CHO cell membranes expressing cloned human receptor, 0.2 nM [3H]-N-methylscopolamine, pH 7.4, 2 hours, 25° C, read-out: Ki M3 (inhibitory effects on binding to muscarinic M3 receptor); for M2/M3 (ratio of binding Ki): selectivity ratio of Ki values. The method, then:
(§1) Tests on Inhibition of Binding to Muscarinic Receptors
(§2) These tests were performed according to a modification of the method of Hargreaves et al. (Br. J. Pharmacol. 107: 494-501, 1992). Membranes from CHO cells expressing cloned human m1-m5 (Receptor Biology, Inc.) were incubated with 0.2 nM [^3 H]-N-methylscopolamine and each a compound of the present invention to be tested in 0.5 ml of 50 mM Tris-HCl-10 mM MgCl2 -1 mM EDTA (pH 7.4) for 2 hours at 25° C. Free and membrane-bound [^3 H]-N-methylscopolamine were separated by filtration over glass filters (UniFilter-GF/C; Packard Instruments Co., Inc.) using cell harvester (Filtermate™ 196; Packard Instruments Co., Inc.). Then the filter was washed four times with 1 ml of ice-cold Tris-HCl (pH 7.4) and dried at 50° C. After adding a scintillator (Microscinti 0; Packard Instruments Co., Inc.), the radioactivity was counted by a liquid scintillation counter (TopCount™; Packard Instruments Co., Inc.). Non-specific binding was measured in the presence of 1 μM N-methylscopolamine.

The next assay has as its target T2, Muscarinic M2 receptor (Homo sapiens, UniProt P08172).
T2 construct: purchased Receptor Biology, Inc; host or cells: CHO cells (membranes)
T2 sequence (P08172 1-466): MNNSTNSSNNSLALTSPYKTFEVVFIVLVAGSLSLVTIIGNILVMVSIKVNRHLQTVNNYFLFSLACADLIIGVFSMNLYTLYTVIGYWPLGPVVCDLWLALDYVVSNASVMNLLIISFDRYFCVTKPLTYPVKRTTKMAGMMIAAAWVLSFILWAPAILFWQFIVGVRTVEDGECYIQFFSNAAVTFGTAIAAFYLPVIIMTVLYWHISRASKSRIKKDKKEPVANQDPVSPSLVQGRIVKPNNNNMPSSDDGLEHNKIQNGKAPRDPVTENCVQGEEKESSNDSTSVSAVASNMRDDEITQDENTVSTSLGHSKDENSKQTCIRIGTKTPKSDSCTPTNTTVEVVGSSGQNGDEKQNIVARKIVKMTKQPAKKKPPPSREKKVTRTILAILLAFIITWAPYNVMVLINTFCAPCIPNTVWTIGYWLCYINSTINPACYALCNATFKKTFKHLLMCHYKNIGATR
Briefly: Inhibition of binding of [3H]-N-methylscopolamine to muscarinic M2 receptor. As to conditions: CHO cell membranes expressing cloned human receptor; 0.2 nM [3H]-N-methylscopolamine, pH 7.4, 2 hours, 25° C; read-out: Ki M2 (inhibitory effects on binding to muscarinic M2 receptor). The method, then: as §1, §2

Assay [2] concerns the target T3, Muscarinic M3 Receptor (Rattus norvegicus, UniProt P08483).
T3 construct: male rats of the Sprague-Dawley strain; from tissue; host or cells: airways of living male Sprague-Dawley rats (in vivo)
Briefly: Bronchodilation in rats (i.v.), inhibition of acetylcholine-induced increase in airway resistance. As to conditions: iv, 5 min, acetylcholine 50 μg/kg i.v. 5 minutes after test compound, read-out: Inhibition of Airway Contraction ED50 iv. Type of assay: in vivo. The method, then:
Tests for Antagonism Against Muscarinic M3 Receptor (in vivo)
1-A) Tests for Bronchodilation in Rats (i.v.).
Eight- to eleven-weeks-old male rats of the Sprague-Dawley strain, weighing 380-420 g, were anesthetized with urethane (750 mg/kg. i.p.) and α-chloralose (37.5 mg/kg, i.p.). The bronchus of each rat was intubated, and the right jugular vein was cannulated for drug administration. […] To evoke an increase in airway resistance, acetylcholine (50 μg/kg, i.v.) was administered to the animals. The acetylcholine-induced airway resistance increase was measured 5 minutes before and 5 minutes after administration of test compound, and the ratio of the airway resistance of the latter to the former was calculated. In controls, isotonic sodium chloride solution was used in place of the test compounds and otherwise identical procedures were repeated, the calculated ratio being set to be 100%.

A further assay deals with T4, airway M3 receptor (Rattus norvegicus, UniProt P08483).
T4 construct: the trachea was isolated; from tissue; host or cells: isolated trachea of male SD strain rat
The experiment in a line: Antagonism to the airway M3 receptor in an isolated rat trachea (in vitro). In kind it is cell-based. The method, then:
(§3) Tests for Antagonism to Muscarinic Receptors (in vitro)
2) Tests for Antagonism to the Airway M3 Receptor in an Isolated Rat Trachea
These tests were performed according to a conventional method. A male SD strain rat (weighing 300-500 g) was killed by exsanguination, and the trachea was isolated. Annular segments (2 mm wide) were cut out from the trachea and cut transversely at the anterior cartilage part to make open ring preparation. A preparation was suspended in a Magnus tube filled with 5 ml of Krebs-Henseleit solution (gassed with 95% O2 -5% CO2 and kept at 32° C.) with an initial tension of 1.0 g and a resting tension of 0.6 g. The tension of the preparation was recorded isometrically. After being equilibrated for an hour, the preparation was made to contract twice by treatment with 10^-4 M carbachol, and the second contraction induced by carbachol was used as the reference contraction. After the preparation was washed with fresh solution to be restored to the base line, a test compound was administered thereto (or no treatment was given). Ten minutes later, carbachol (10^-8 to 10^-3 M) was cumulatively administered in three-fold increasing doses to obtain a dose-response curve. The dose-response curve was plotted by expressing responses as percentages based on the reference contraction of the preparation as 100%. The antagonistic potency (K^B value) of the test compound was determined from the degree of shift of the dose-response curve obtained by treatment with the test compound.

Another assay deals with T5, M2 receptor (Rattus norvegicus, UniProt P10980).
T5 construct: the right atrium was isolated; from tissue; host or cells: isolated right atrium of male SD strain rat
T5 sequence (P10980 1-466): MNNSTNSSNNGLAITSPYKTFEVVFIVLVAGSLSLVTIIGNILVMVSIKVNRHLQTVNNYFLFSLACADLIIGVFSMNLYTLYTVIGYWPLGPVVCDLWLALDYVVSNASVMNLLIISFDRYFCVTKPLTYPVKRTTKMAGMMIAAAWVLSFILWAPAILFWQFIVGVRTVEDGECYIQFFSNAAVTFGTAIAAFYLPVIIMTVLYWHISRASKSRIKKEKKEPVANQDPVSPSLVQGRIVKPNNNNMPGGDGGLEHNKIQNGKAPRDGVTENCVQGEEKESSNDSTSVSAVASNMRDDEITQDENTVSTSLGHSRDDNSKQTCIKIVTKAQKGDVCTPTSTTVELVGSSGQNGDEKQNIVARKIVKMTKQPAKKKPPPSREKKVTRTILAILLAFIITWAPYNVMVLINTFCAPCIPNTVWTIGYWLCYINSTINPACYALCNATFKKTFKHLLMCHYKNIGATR
Briefly: Antagonism to M2 receptor in an isolated rat right atrium (in vitro). Type of assay: cell-based. As to conditions: carbachol-induced decrease in heart rate. The method, then: as §3
1) Tests for Antagonism to M2 receptor in an Isolated Rat Right Atrium
These tests were performed according to a conventional method. A male SD strain rat (weighing 300-500 g) was killed by exsanguination, and the right atrium was isolated. This preparation was isometrically suspended in organ bath filled with 20 ml of Krebs-Henseleit solution (gassed with 95% O2 -5% CO2 and kept at 32° C.) with an initial tension of 0.5 g. The heart rate was recorded with a heart rate counter. After the preparation was equilibrated for 30 minutes, carbachol (10^-9 to 10^-6 M) was cumulatively administered in three-fold increasing doses. Thus, a decrease in heart rate was measured to obtain a dose-response curve for the control experiment. After the preparation was washed with fresh solution to restore the heart rate, a test compound was administered thereto. Ten minutes later, carbachol was cumulatively administered again. Responses to carbachol were expressed as percentages based on the heart rate before administration of carbachol as 100%. The antagonistic potency (KB value) of the test compound was determined from the degree of shift of the dose-response curve obtained by treatment with individual test compound of the present invention.

SMILES strings stand for the structures. pKi: −log10 of the molar value.

T1 sequence (P20309 whole entry): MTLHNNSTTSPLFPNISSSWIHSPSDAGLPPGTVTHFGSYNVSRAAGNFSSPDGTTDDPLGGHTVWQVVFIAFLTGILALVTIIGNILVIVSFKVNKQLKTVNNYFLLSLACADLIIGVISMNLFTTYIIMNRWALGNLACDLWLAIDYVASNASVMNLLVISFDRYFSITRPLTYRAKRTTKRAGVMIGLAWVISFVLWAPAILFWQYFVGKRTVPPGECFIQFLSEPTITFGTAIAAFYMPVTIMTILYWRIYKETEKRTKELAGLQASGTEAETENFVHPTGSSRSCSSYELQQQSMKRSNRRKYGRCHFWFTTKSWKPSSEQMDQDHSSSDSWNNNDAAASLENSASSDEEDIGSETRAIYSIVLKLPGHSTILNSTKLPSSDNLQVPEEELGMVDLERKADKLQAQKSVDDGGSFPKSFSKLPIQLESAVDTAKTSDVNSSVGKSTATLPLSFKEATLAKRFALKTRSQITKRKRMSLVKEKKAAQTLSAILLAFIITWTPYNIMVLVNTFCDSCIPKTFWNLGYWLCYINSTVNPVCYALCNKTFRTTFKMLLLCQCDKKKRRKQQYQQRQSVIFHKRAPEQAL
T4 sequence (P08483 whole entry): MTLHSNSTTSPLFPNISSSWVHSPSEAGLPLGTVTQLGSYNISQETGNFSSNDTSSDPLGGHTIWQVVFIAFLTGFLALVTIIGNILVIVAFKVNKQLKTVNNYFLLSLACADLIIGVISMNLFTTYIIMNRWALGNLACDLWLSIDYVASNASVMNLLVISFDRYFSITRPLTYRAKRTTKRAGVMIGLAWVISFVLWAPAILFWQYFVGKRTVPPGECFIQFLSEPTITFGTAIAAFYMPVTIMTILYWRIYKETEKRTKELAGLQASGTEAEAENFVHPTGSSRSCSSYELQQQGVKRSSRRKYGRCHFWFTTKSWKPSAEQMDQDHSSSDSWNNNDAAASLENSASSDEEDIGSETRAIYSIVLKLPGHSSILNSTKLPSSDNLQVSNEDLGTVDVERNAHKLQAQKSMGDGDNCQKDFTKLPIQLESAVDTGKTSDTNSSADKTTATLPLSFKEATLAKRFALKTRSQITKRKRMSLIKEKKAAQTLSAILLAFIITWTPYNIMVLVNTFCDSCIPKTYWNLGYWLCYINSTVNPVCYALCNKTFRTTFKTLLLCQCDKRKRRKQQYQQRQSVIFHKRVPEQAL
T3 sequence (P08483 whole entry): as above

In the case of `COc1cc(N)nc(CN2CCC(NC(=O)[C@](O)(c3ccccc3)[C@@H]3CCC(F)(F)C3)CC2)c1.Cl.Cl` [Example 21, (2R)-N-[1-(6-amino-4-methoxypyridin-2-ylmethyl)piperidin-4-yl]-2-[(1R)-3,3-difluorocyclopentyl]-2-hydroxy-2-phenylacetamide dihydrochloride], the pKi at Muscarinic M3 receptor [1] is 7.66; on Muscarinic M2 receptor it was 4.30. Moreover, at Muscarinic M3 receptor [1], the “M2/M3 (ratio of binding Ki)” value is reported as 2300.
The like results for `O=C(NC1CCN(Cc2ccccn2)CC1)[C@](O)(c1ccccc1)[C@@H]1CCC(F)(F)C1` [Example 14, (2R)-N-[1-(2-pyridylmethyl)piperidin-4-yl]-2-[(1R)-3,3-difluorocyclopentyl]-2-hydroxy-2-phenylacetamide] were, in that order, 8.00, 5.85 and 140.
The corresponding values for `Cc1cc(N)cc(CN2CCC(NC(=O)[C@](O)(c3ccccc3)[C@@H]3CCC(F)(F)C3)CC2)c1.Cl.Cl` [Example 22, (2R)-N-[1-(3-amino-5-methylbenzyl)piperidin-4-yl]-2-[(1R)-3,3-difluorocyclopentyl]-2-hydroxy-2-phenylacetamide dihydrochloride] are 7.72, 4.89 and 680.
Turning to `CC(C)=CCCN1CCC(NC(=O)[C@](O)(c2ccccc2)[C@@H]2CCC(F)(F)C2)CC1` [Example 1, (2R)-N-[1-(4-methyl-3-pentenyl)piperidin-4-yl]-2-[(1R)-3,3-difluorocyclopentyl]-2-hydroxy-2-phenylacetamide], the values for the negative logarithm of the Ki (pKi) on Muscarinic M3 receptor [1] and at Muscarinic M2 receptor were 8.26 and 5.49, respectively. In addition, the “M2/M3 (ratio of binding Ki)” value on Muscarinic M3 receptor [1] is 590. In addition, the ED50 on Muscarinic M3 Receptor [2] was 0.033 mg/kg. In addition, the antagonist dissociation constant (Kb) at airway M3 receptor (isolated rat trachea, carbachol-induced contraction) is 6.3 nM; on M2 receptor, 1000 nM. Moreover, on airway M3 receptor (selectivity ratio of KB values, right atrium M2 / trachea M3), the “M2/M3 (ratio of KB)” value stood at 160.
For `Cc1cccc(CN2CCC(NC(=O)[C@](O)(c3ccccc3)[C@@H]3CCC(F)(F)C3)CC2)n1` [Example 10, (2R)-N-[1-(6-methylpyridin-2-ylmethyl)piperidin-4-yl]-2-[(1R)-3,3-difluorocyclopentyl]-2-hydroxy-2-phenylacetamide], on Muscarinic M3 receptor [1], the pKi is 8.05 and the “M2/M3 (ratio of binding Ki)” value is listed as 1900. Also, on Muscarinic M2 receptor, the pKi was 4.77.
As for `O=C(NC1CCN(Cc2ccoc2)CC1)[C@](O)(c1ccccc1)[C@@H]1CCC(F)(F)C1` [Example 12, (2R)-N-[1-(3-furylmethyl)piperidin-4-yl]-2-[(1R)-3,3-difluorocyclopentyl]-2-hydroxy-2-phenylacetamide], the pKi at Muscarinic M2 receptor was 5.07.
`Nc1cc(N)cc(CN2CCC(NC(=O)[C@](O)(c3ccccc3)[C@@H]3CCC(F)(F)C3)CC2)c1` [Example 27, (2R)-N-[1-(3,5-diaminobenzyl)piperidin-4-yl]-2-[(1R)-3,3-difluorocyclopentyl]-2-hydroxy-2-phenylacetamide]: the pKi at Muscarinic M3 receptor [1] is 7.70; at Muscarinic M2 receptor, 5.38. Further, the “M2/M3 (ratio of binding Ki)” value on Muscarinic M3 receptor [1] is reported as 210.
Consider `COc1cc(N)cc(CN2CCC(NC(=O)[C@](O)(c3ccccc3)[C@@H]3CCC(F)(F)C3)CC2)c1.Cl.Cl` [Example 31, (2R)-N-[1-(3-amino-5-methoxybenzyl)piperidin-4-yl]-2-[(1R)-3,3-difluorocyclopentyl]-2-hydroxy-2-phenylacetamide dihydrochloride], for which, on Muscarinic M3 receptor [1], the negative logarithm of the Ki (pKi) was 7.72 and the “M2/M3 (ratio of binding Ki)” value amounted to 520. Further, the negative logarithm of the Ki (pKi) at Muscarinic M2 receptor was 5.00.
`COc1cccc(CN2CCC(NC(=O)[C@](O)(c3ccccc3)[C@@H]3CCC(F)(F)C3)CC2)c1` [Example 15, (2R)-N-[1-(3-methoxybenzyl)piperidin-4-yl]-2-[(1R)-3,3-difluorocyclopentyl]-2hydroxy-2-phenylacetamide]: at Muscarinic M2 receptor, the negative logarithm of the Ki (pKi) was 6.00.
With `CN1C2CCC1CC(OC(=O)C(CO)c1ccccc1)C2` (stereo not shown) [atoropine, reference compound], the ED50 at Muscarinic M3 Receptor [2] stood at 0.0043 mg/kg.
